Results: US20240182460A1, “ALLOSTERIC CHROMENONE INHIBITORS OF PHOSPHOINOSITIDE 3-KINASE (PI3K) FOR THE TREATMENT OF DISEASE” (PETRA PHARMA CORPORATION, priority 2022, published 2024)

experiment: Metabolic stability and intrinsic clearance in human liver microsomes (MICS); type: in vitro ADME; details: human, microsomes, pH 7.4
Method: Metabolic Stability and Intrinsic Clearance in Liver Microsomes (MICS)
One objective of this assay is to measure in vitro metabolic stability of a test compound in liver microsomes of one or more different species. The concentration of a control compound in the reaction system is evaluated by LC/MS/MS for calculating intrinsic clearance of a test compound and estimating the stability of the control compound and test compound in liver microsomes of one or more different species.
Microsomes (MICS). Human Liver Microsomes (HLM), Monkey Liver Microsomes (MKLM), Dog Liver Microsomes (DLM), Rat Liver Microsomes (RLM), and Mouse Liver Microsomes (MLM) are obtained at a concentration of 20 mg/mL protein from commercial sources and stored in a −80° C. freezer. Prior to use, liver microsomes are removed from the freezer and allowed to thaw in a 37° C. water bath and then stored on wet ice.
Stock Solutions. Test Compound (TC) Stock Solutions are prepared in DMSO at a concentration of 10 mM and stored for later use. Positive Control (PC) Stock Solutions of verapamil·HCL (FW: 491.1 g/mol) in DMSO are prepared at a concentration of 10 mM (4.91 mg/mL), and stored at the condition same as the stock solutions of test compounds.
Phosphate Buffer. Phosphate Buffer (100 mM, pH 7.4) is prepared by combining a Solution A and a Solution B as follows.
To prepare Solution A, 7.098 g of disodium hydrogen phosphate was combined with 500 mL of pure water and sonicated to dissolve. To prepare the Solution B, 3.400 g of potassium dihydrogen phosphate was combined with 250 mL of pure water and sonicated to dissolve. Solution A was placed on a stirrer and Solution B was slowly added into Solution A until the pH reached 7.4.
NADPH Solution. A 10 mM NADPH Solution is prepared by dissolving NADPH (MW: 833.4 g/mol) at 8.334 mg/mL in phosphate buffer (100 mM, pH 7.4).
Microsome Master Solution. A Microsome Master Solution is prepared by adding 6.25 μL microsomes (20 mg/mL) to 216.25 μL Phosphate Buffer (100 mM). The final concentration is Phosphate Buffer (100 mM); microsomes (0.5 mg/mL).
Dilution of Stock Solutions. The TC Stock Solutions (10 mM in DMSO) and the PC Stock Solutions (10 mM in DMSO) are diluted by adding 3 μL of the TC Stock Solution or the PC Stock Solution to 297 μL of 50% acetonitrile/50% water.
Incubation. Two separated experiments were performed as follows. a) With Cofactors (NADPH): 25 μL of 10 mM NADPH was added to the incubations. The final concentrations of
microsomes and NADPH were 0.5 mg/mL and 1 mM, respectively. b) Without Cofactors (NADPH): 25 μL of 100 mM Phosphate buffer was added to the incubations. The final concentration of microsomes was 0.5 mg/mL. The mixture was pre-warmed at 37° C. for 10 minutes.
The reaction was started with the addition of 2.5 μL of 100 μM PC solution or TC solutions.
Verapamil was used as PC in this study. The final concentration of test compound or control compound was 1 μM. The incubation solution was incubated in water batch at 37° C.
Reaction Termination. Aliquots of 30 μL were taken from the reaction solution at 0.5, 5, 15, 30 and 60 minutes and added to plates. The reaction was stopped by the addition of 5 volumes of cold acetonitrile and a solution containing 100 nM alprazolam, 200 nM caffeine and 100 nM tolbutamide.
Sampling. The plates containing the terminated reactions were centrifuged at 4000 rpm for 30 minutes. Supernatant of each compound (40 μL) was transferred into a 96-well analysis plate.
Four compound samples are pooled together into one cassette and diluted by adding 160 μL of pure water. All incubations are performed in duplicate.
Analysis and Data Processing. Quantitative LC-MS analysis is performed, and peak areas are determined from extracted ion chromatograms. Percent parent remaining was calculated from peak area of TC or PC. The slope value, k, is determined by linear regression of the natural logarithm of percent parent remaining vs. incubation time curve. […]

SMILES	microsomal CLint at 1 μM
Cc1cc([C@@H](C)Oc2ccc(Cl)nc2S(N)(=O)=O)c2oc(-c3cnn(C)c3C#N)c(C)c(=O)c2c1 [Example 21C, 6-Chloro-3-[(1R)-1-[2-(5-cyano-1-methyl-pyrazol-4-yl)-3,6-dimethyl-4-oxo-chromen-8-yl]ethoxy]pyridine-2-sulfonamide]	< 50 µL/min/mg
Cc1cc([C@@H](C)Oc2cccnc2C(=O)NOC(C)(C)C)c2oc(-c3ccc4nn(C)cc4c3)c(C)c(=O)c2c1 [Example 24A, N-tert-Butoxy-3-[(1R)-1-[3,6-dimethyl-2-(2-methylindazol-5-yl)-4-oxo-chromen-8-yl]ethoxy]pyridine-2-carboxamide]	< 50 µL/min/mg
Cc1cc([C@@H](C)Oc2ccc(Cl)nc2S(N)(=O)=O)c2oc(-c3cccc(C#N)c3)c(C)c(=O)c2c1 [Example 24C, 6-Chloro-3-[(1R)-1-[2-(3-cyanophenyl)-3,6-dimethyl-4-oxo-chromen-8-yl]ethoxy]pyridine-2-sulfonamide]	< 50 µL/min/mg
Cc1cc([C@@H](C)Oc2ccc(Cl)nc2S(N)(=O)=O)c2oc(-c3ccc(C#N)cc3)c(C)c(=O)c2c1 [Example 25C, 6-Chloro-3-[(1R)-1-[2-(4-cyanophenyl)-3,6-dimethyl-4-oxo-chromen-8-yl]ethoxy]pyridine-2-sulfonamide]	< 50 µL/min/mg
Cc1cc([C@@H](C)Oc2ccc(Cl)nc2C(=O)NOC(C)(C)C)c2oc(-c3ccc4nn(C)cc4c3)c(C)c(=O)c2c1 [Example 27A, N-tert-Butoxy-6-chloro-3-[(1R)-1-[3,6-dimethyl-2-(2-methylindazol-5-yl)-4-oxo-chromen-8-yl]ethoxy]pyridine-2-carboxamide]	< 50 µL/min/mg
Cc1cc([C@@H](C)Oc2ccc(F)c(F)c2C(N)=O)c2oc(-c3cnn(C)c3)c(C)c(=O)c2c1 [Example 31A, 6-[(1R)-1-[3,6-Dimethyl-2-(1-methylpyrazol-4-yl)-4-oxo-chromen-8-yl]ethoxy]-2,3-difluoro-benzamide]	< 50 µL/min/mg
Cc1cc([C@@H](C)Oc2ccc(Cl)nc2S(N)(=O)=O)c2oc(-c3cncnc3)c(C)c(=O)c2c1 [Example 38A, 6-Chloro-3-[(1R)-1-(3,6-dimethyl-4-oxo-2-pyrimidin-5-yl-chromen-8-yl)ethoxy]pyridine-2-sulfonamide]	< 50 µL/min/mg
Cc1cc([C@@H](C)Oc2ccc(Cl)nc2C(N)=O)c2oc(-c3cnn4ncccc34)c(C)c(=O)c2c1 [Example 39C, 6-Chloro-3-[(1R)-1-(3,6-dimethyl-4-oxo-2-pyrazolo[1,5-b]pyridazin-3-yl-chromen-8-yl)ethoxy]pyridine-2-carboxamide]	< 50 µL/min/mg
Cc1cc([C@@H](C)Oc2ccc(Cl)nc2-c2noc(=O)[nH]2)c2oc(-c3cnn4c3COCC4)c(C)c(=O)c2c1 [Example 41A, 3-[6-Chloro-3-[(1R)-1-[2-(6,7-dihydro-4H-pyrazolo[5,1-c][1,4]oxazin-3-yl)-3,6-dimethyl-4-oxo-chromen-8-yl]ethoxy]-2-pyridyl]-4H-1,2,4-oxadiazol-5-one]	< 50 µL/min/mg
Cc1cc([C@@H](C)Oc2ccc(Cl)nc2C(N)=O)c2oc(-c3cc4cn(C)nc4cc3F)c(C)c(=O)c2c1 [Example 42C, 6-Chloro-3-[(1R)-1-[2-(6-fluoro-2-methyl-indazol-5-yl)-3,6-dimethyl-4-oxo-chromen-8-yl]ethoxy]pyridine-2-carboxamide]	< 50 µL/min/mg
COc1cc(-c2oc3c([C@@H](C)Oc4ccc(Cl)nc4C(N)=O)cc(C)cc3c(=O)c2C)cc2cn(C)nc12 [Example 44C, 6-Chloro-3-[(1R)-1-[2-(7-methoxy-2-methyl-indazol-5-yl)-3,6-dimethyl-4-oxo-chromen-8-yl]ethoxy]pyridine-2-carboxamide]	< 50 µL/min/mg

Further lines, results first:

microsomal CLint at 1 μM	SMILES
< 50 µL/min/mg	Cc1cc([C@@H](C)Oc2ccc(Cl)nc2-c2noc(=O)[nH]2)c2oc(-c3cnc4c(c3)OCCO4)c(C)c(=O)c2c1 [Example 47A, 3-[6-Chloro-3-[(1R)-1-[2-(2,3-dihydro-[1,4]dioxino[2,3-b]pyridin-7-yl)-3,6-dimethyl-4-oxo-chromen-8-yl]ethoxy]-2-pyridyl]-4H-1,2,4-oxadiazol-5-one]
< 50 µL/min/mg	Cc1cc([C@@H](C)Oc2ccc(Cl)nc2C(N)=O)c2oc(-c3ccc4c(c3)C(C)(C)OC(=O)N4)c(C)c(=O)c2c1 [Example 47C, 6-Chloro-3-[(1R)-1-[2-(4,4-dimethyl-2-oxo-1H-3,1-benzoxazin-6-yl)-3,6-dimethyl-4-oxo-chromen-8-yl]ethoxy]pyridine-2-carboxamide]
< 50 µL/min/mg	Cc1cc([C@@H](C)Oc2ccc(Cl)nc2C(N)=O)c2oc(-c3cc(C#N)c4nn(C)cc4c3)c(C)c(=O)c2c1 [Example 52C, 6-Chloro-3-[(1R)-1-[2-(7-cyano-2-methyl-indazol-5-yl)-3,6-dimethyl-4-oxo-chromen-8-yl]ethoxy]pyridine-2-carboxamide]
< 50 µL/min/mg	Cc1cc([C@@H](C)Oc2ccc(Cl)nc2-c2noc(=O)[nH]2)c2oc(C3CC3)c(C)c(=O)c2c1 [Example 64A, 3-[6-Chloro-3-[(1R)-1-(2-cyclopropyl-3,6-dimethyl-4-oxo-chromen-8-yl)ethoxy]-2-pyridyl]-4H-1,2,4-oxadiazol-5-lone]
< 50 µL/min/mg	Cc1cc([C@@H](C)Oc2ccc(Cl)nc2C(N)=O)c2oc(-c3cncnc3)c(C)c(=O)c2c1 [Example 67A, 6-Chloro-3-[(1R)-1-(3,6-dimethyl-4-oxo-2-pyrimidin-5-yl-chromen-8-yl)ethoxy]pyridine-2-carboxamide]
< 50 µL/min/mg	Cc1cc([C@@H](C)Oc2ccc(F)nc2S(N)(=O)=O)c2oc(-c3cnc4ccoc4c3)c(C)c(=O)c2c1 [Example 73C, 6-Fluoro-3-[(1R)-1-(2-furo[3,2-b]pyridin-6-yl-3,6-dimethyl-4-oxo-chromen-8-yl)ethoxy]pyridine-2-sulfonamide]
< 50 µL/min/mg	Cc1cc([C@@H](C)Oc2ccc(Cl)nc2C(N)=O)c2oc(-c3cnccn3)c(C)c(=O)c2c1 [Example 78C, 6-Chloro-3-[(1R)-1-(3,6-dimethyl-4-oxo-2-pyrazin-2-yl-chromen-8-yl)ethoxy]pyridine-2-carboxamide]
< 50 µL/min/mg	Cc1cc([C@@H](C)Oc2ccc(Cl)nc2-c2noc(=O)[nH]2)c2oc(-c3cnn4c3CCC4)c(C)c(=O)c2c1 [Example 102A, 3-[6-Chloro-3-[(1R)-1-[2-(5,6-dihydro-4H-pyrrolo[2,1-e]pyrazol-3-yl)-3,6-dimethyl-4-oxo-chromen-8-yl]ethoxy]-2-pyridyl]-4H-1,2,4-oxadiazol-5-one]
< 50 µL/min/mg	Cc1cc([C@@H](C)Oc2ccccc2S(N)(=O)=O)c2oc(-c3cnn(C)c3)c(C)c(=O)c2c1 [Example 103C, 2-[(1R)-1-[3,6-Dimethyl-2-(1-methylpyrazol-4-yl)-4-oxo-chromen-8-yl]ethoxy]benzenesulfonamide]
< 50 µL/min/mg	Cc1cc([C@@H](C)Oc2ccc(Cl)nc2C(N)=O)c2oc(-c3ccc4[nH]c(=O)ccc4c3)c(C)c(=O)c2c1 [Example 105A, 6-Chloro-3-[(1R)-1-[3,6-dimethyl-4-oxo-2-(2-oxo-1H-quinolin-6-yl)chromen-8-yl]ethoxy]pyridine-2-carboxamide]
< 50 µL/min/mg	Cc1cc([C@@H](C)Oc2ccc(C#N)cc2C(N)=O)c2oc(-c3ccc4nn(C)cc4c3)c(C)c(=O)c2c1 [Example 108C, 5-Cyano-2-[(1R)-1-[3,6-dimethyl-2-(2-methylindazol-5-yl)-4-oxo-chromen-8-yl]ethoxy]benzamide]
